Measured values: PubChem BioAssay AID1963986 (Molecular Pharmacology Branch, DTP, NCI, 2024)

Test system: 171881-019-R-J1-PDC tumor spheroid viability
Assay: Anticancer human tumor 171881-019-R-J1-PDC patient-derived invasive breast carcinoma cell line growth inhibition [PI3K]
Conditions: spheroids with HUVEC and MSC; for IC50: curve of first compound; for viability, T/C: stronger effect = lower value; active = viability on the fitted dose curve at most 10% of control; inactive = the rest
How it was run: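 Targeted small molecules plus PI3K inhibitors, half-log dose series from Cmax (default top 10 microM), were applied to heterotypic spheroids of cancer cells with HUVEC and MSCs. Viability indicated growth inhibition.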

[1] = second compound 0.00316 µM, first compound 0.0316 µM
[2] = second compound 0.00316 µM, first compound 0.1 µM
[3] = second compound 0.01 µM, first compound 0.0316 µM
[4] = second compound 0.01 µM, first compound 0.1 µM
[5] = second compound 0.0316 µM, first compound 0.0316 µM
[6] = second compound 0.0316 µM, first compound 0.1 µM
[7] = second compound 0.1 µM, first compound 0.0316 µM
[8] = second compound 0.1 µM, first compound 0.1 µM
[9] = second compound 0.316 µM, first compound 0.0316 µM
[10] = second compound 0.316 µM, first compound 0.1 µM
[11] = second compound 1 µM, first compound 0.0316 µM
[12] = second compound 1 µM, first compound 0.1 µM
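Also: spheroids exposed to compound for 7 days before viability read.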
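For viability, T/C in this document: 100% = DMSO vehicle-treated spheroids.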

CC(=O)c1c(C)c2cnc(Nc3ccc(N4CCNCC4)cn3)nc2n(C2CCCC2)c1=O + CC(Nc1ccc2c(c1)OCCn1cc(N3C(=O)OCC3C(F)F)nc1-2)C(N)=O
inactive: viability, T/C (second compound 0.00316 µM, first compound 0.000316 µM) 85.7% | viability, T/C (second compound 0.00316 µM, first compound 0.001 µM) 85.3% | viability, T/C (second compound 0.00316 µM, first compound 0.00316 µM) 94.5% | viability, T/C (second compound 0.00316 µM, first compound 0.01 µM) 95.2% | viability, T/C [1] 100% | viability, T/C [2] 86.7% | viability, T/C (second compound 0.01 µM, first compound 0.000316 µM) 74.2% | viability, T/C (second compound 0.01 µM, first compound 0.001 µM) 82.3% | viability, T/C (second compound 0.01 µM, first compound 0.00316 µM) 78.5% | viability, T/C (second compound 0.01 µM, first compound 0.01 µM) 85.9% | viability, T/C [3] 89.2% | viability, T/C [4] 73% | viability, T/C (second compound 0.0316 µM, first compound 0.000316 µM) 50.3% | viability, T/C (second compound 0.0316 µM, first compound 0.001 µM) 58.7% | viability, T/C (second compound 0.0316 µM, first compound 0.00316 µM) 53.9% | viability, T/C (second compound 0.0316 µM, first compound 0.01 µM) 49.1% | viability, T/C [5] 64.5% | viability, T/C [6] 58.6% | viability, T/C (second compound 0.1 µM, first compound 0.000316 µM) 40.4% | viability, T/C (second compound 0.1 µM, first compound 0.001 µM) 42.6% | viability, T/C (second compound 0.1 µM, first compound 0.00316 µM) 42% | viability, T/C (second compound 0.1 µM, first compound 0.01 µM) 44.3% | viability, T/C [7] 47.7% | viability, T/C [8] 42.1% | viability, T/C (second compound 0.316 µM, first compound 0.000316 µM) 26.7% | viability, T/C (second compound 0.316 µM, first compound 0.001 µM) 27% | viability, T/C (second compound 0.316 µM, first compound 0.00316 µM) 28% | viability, T/C (second compound 0.316 µM, first compound 0.01 µM) 28% | viability, T/C [9] 30.8% | viability, T/C [10] 29% | viability, T/C (second compound 1 µM, first compound 0.000316 µM) 20.4% | viability, T/C (second compound 1 µM, first compound 0.001 µM) 20.4% | viability, T/C (second compound 1 µM, first compound 0.00316 µM) 24.1% | viability, T/C (second compound 1 µM, first compound 0.01 µM) 24.2% | viability, T/C [11] 27.8% | viability, T/C [12] 25.9%
< 0.316 nM: IC50 (second compound 0.1 µM) | IC50 (second compound 0.316 µM) | IC50 (second compound 1 µM)
> 100 nM: IC50 (second compound 0.00316 µM) | IC50 (second compound 0.01 µM) | IC50 (second compound 0.0316 µM)

CCCS(=O)(=O)Nc1ccc(F)c(C(=O)c2c[nH]c3ncc(-c4ccc(Cl)cc4)cc23)c1F + COc1c(OCCCN2CCOCC2)ccc2c3n(c(=NC(=O)c4cnc(N)nc4)nc12)CCN3
< 31.6 nM: IC50 (second compound 0.0316 µM) | IC50 (second compound 0.1 µM) | IC50 (second compound 0.316 µM) | IC50 (second compound 1 µM)
4520 nM: IC50 (second compound 0.01 µM)
active: viability, T/C (second compound 0.01 µM, first compound 10 µM) 9.83% | viability, T/C [9] 2.18% | viability, T/C [10] 2.42% | viability, T/C (second compound 0.316 µM, first compound 0.316 µM) 3.05% | viability, T/C (second compound 0.316 µM, first compound 1 µM) 2.63% | viability, T/C (second compound 0.316 µM, first compound 3.16 µM) 3.95% | viability, T/C (second compound 0.316 µM, first compound 10 µM) 2.09% | viability, T/C [11] 1.32% | viability, T/C [12] 1.32% | viability, T/C (second compound 1 µM, first compound 0.316 µM) 1.47% | viability, T/C (second compound 1 µM, first compound 1 µM) 1.16% | viability, T/C (second compound 1 µM, first compound 3.16 µM) 1.64% | viability, T/C (second compound 1 µM, first compound 10 µM) 3.34%
inactive: viability, T/C [1] 70.6% | viability, T/C [2] 81.9% | viability, T/C (second compound 0.00316 µM, first compound 0.316 µM) 94.3% | viability, T/C (second compound 0.00316 µM, first compound 1 µM) 108% | viability, T/C (second compound 0.00316 µM, first compound 3.16 µM) 93.7% | viability, T/C (second compound 0.00316 µM, first compound 10 µM) 12.9% | viability, T/C [3] 53.8% | viability, T/C [4] 60% | viability, T/C (second compound 0.01 µM, first compound 0.316 µM) 67.2% | viability, T/C (second compound 0.01 µM, first compound 1 µM) 83.6% | viability, T/C (second compound 0.01 µM, first compound 3.16 µM) 76.5% | viability, T/C [5] 29% | viability, T/C [6] 29.3% | viability, T/C (second compound 0.0316 µM, first compound 0.316 µM) 32% | viability, T/C (second compound 0.0316 µM, first compound 1 µM) 40.5% | viability, T/C (second compound 0.0316 µM, first compound 3.16 µM) 45.8% | viability, T/C (second compound 0.0316 µM, first compound 10 µM) 5.59% | viability, T/C [7] 9.3% | viability, T/C [8] 10.5% | viability, T/C (second compound 0.1 µM, first compound 0.316 µM) 10.9% | viability, T/C (second compound 0.1 µM, first compound 1 µM) 13.9% | viability, T/C (second compound 0.1 µM, first compound 3.16 µM) 17.3% | viability, T/C (second compound 0.1 µM, first compound 10 µM) 2.6%
5730 nM: IC50 (second compound 0.00316 µM)
